Where two headings read alike, the source gives them in different places.
Assays:
[1] = system: zebrafish embryos (wild-type strain OBI/WIK); assay: Lethality of zebrafish embryos at 96 hpf; format: in vivo, zebrafish (D. rerio); conditions: for Mortality (in words): embryos exposed from 24 hpf, compared to exposure from 3 hpf
Description: Fertilized and normally developed embryos were selected according to Kimmel et al. ([1995]) with a dissection microscope (Olympus SZx7-ILLT) at 1 hpf. Depending on experiment, exposure was started within 2–3 h post-fertilization (16–128 cell stages) or at 24 hpf. Exposure was conducted in rectangular 96-well microplates (Clear Polystyrene, flat bottom, Uniplate, Whatman, GE Healthcare) covered by a lid with a test volume of 400 µL of exposure media. For each replicate one embryo per well and 16 wells per concentration were assessed. Experiments were performed with at least two replicates on independent days and breeding.
Concentration–response curves were fitted for lethality, heart rate, morphological features as previously described (Teixidó et al. [2019], [2022]). The assessment of lethality and morphological features was based on the percentage of embryos affected. Therefore, morphological endpoints were dichotomized, i.e. feature metrics were converted to the percentage of embryos deviating from controls. An embryo was considered to deviate when it was outside 1.5-fold of the standard deviation range of the mean of the control group. The control mean was determined by pooling control embryos across all experiments (n = 160) (available at git.ufz.de). For heart rate and angiogenesis (number of ISVs) the analysis was based on normalized values, i.e. for each experiment the values of the treatment were divided by the control value. The experiments were designed to calculate effect concentrations based on modelled curve fits. Different concentrations were used in at least two independent replicates, with means of each replicate based on the exposure of 16 different embryos per concentrations. Effect concentration were only modeled when three conditions were met. (1) The Tukey trend test based on the R package "tukeytrend" (Schaarschmidt et al. [2022]) was deriving a maximum p-value of 0.05. (2) The Akaike information criterion (AIC) for the log-logistic model was lower than the AIC for a linear model with slope 0 (lower p values for the letter would indicate that there is no trend in the data). (3) We calculated effect concentrations only if at least 30% of embryos for that endpoint were affected in at least one exposure concentration of (for normalized data) a reduction or increase by 30% was observed.

[2] = system: zebrafish embryos (wild-type strain OBI/WIK); assay: Morphological features and heart rate by automated imaging (VAST/FishInspector) at 96 hpf; format: in vivo, zebrafish (D. rerio); conditions: embryos exposed beginning at 3 hpf; not observed when exposure started at 24 hpf
Description: Automated imaging of zebrafish developmental phenotypes was conducted with the VAST BioImager (Union Biometrica, Gees, Belgium (Pardo-Martin et al. [2010]; Pulak [2016])) equipped with a large particle sampler (LP sampler, Union Biometrica). Lateral and dorsoventral images were obtained at 10 µm resolution at 96 hpf. Prior to imaging, all embryos were anesthetized by adding 20 µl tricaine solution ([…] tricaine, TRIS 26 mM, pH 7.5 ± 0.1) to each well of the microplate. Images were processed with an amended version (1.70, available via https://codebase.helmholtz.cloud/ufz/tb3-cite/biotox/FishInspector) of the FishInspector imaging software (Teixidó et al. [2019]). The FishInspector software allows to automatically annotate morphological features including body contour, eye, lower mouth tip, pericard, otoliths, notochord, swimbladder, and yolk and to calculate diverse metrics such as feature length, size, curvature indices, or angle between feature-connecting lines. In contrast to the previously published version, FishInspector 1.70 detects morphological features based on a deep learning approach using the Matlab Neural Network Toolbox and Matlab Image Processing Toolbox (Mathworks, Natick, […]). In addition, metric calculation was included into the software, and meta information such as test compound, exposure window or test concentration was associated to each image using a microplate layout file. To facilitate training of the models, two additional programs were generated in Matlab including FishTrainer 0.9 (for training of semantic segmentation models of structural features) and FishClassificator 0.9 (for training of position classes to be used in automated flipping of images) available via same repository as FishInspector software. For image training, image size was adjusted to 450 × 300 pixel to reduce computing time. This resolution was sufficient to detect the selected features (data not shown). For training of the deep learning models, approximately 3000 previously annotated images (Teixidó et al. [2022]) were used. The automated annotations were corrected by the user in the event that they were not adequately detecting visible structures. User-bias was avoided by a blinded assessment of images.
FishInspector provided a JSON file corresponding to each image file containing the coordinates of all features and the applied smoothing factor. All images and videos used for this publication can be found at the BioImage Archive S-BIAD954 (https://www.ebi.ac.uk/biostudies/bioimages/studies/S-BIAD954). For each image, a csv file was generated containing calculated metrics. The software automatically provides a summary table containing metrics r of individual embryos. […] The analyzed file includes endpoint names based on the FishInspector software. […]

[3] = system: early life stage zebrafish; conditions: cited from earlier work

In the case of `CNC(=O)c1cc(Oc2ccc(NC(=O)Nc3ccc(Cl)c(C(F)(F)F)c3)cc2)ccn1` [Sorafenib], the “Mortality (in words)” value [1] is listed as “no”, the “Swim bladder inflation (in words)” value [2] is listed as “impaired swim bladder inflation” and the IC50 ([3]; ref Lin et al. [2019], read-out: IC50 from scoring system of different ISV length) is listed as 530 nM.
In the case of `Cc1cc(C)c(/C=C2\C(=O)Nc3ccccc32)[nH]1` [SU5416], the “Mortality (in words)” value [1] is listed as “reduced”, the “Swim bladder inflation (in words)” value [2] is listed as “impaired swim bladder inflation” and the “Reduction (ISV)” value ([3]; late exposure scenario, 40 µM, ref Parng et al. [2002]) is listed as 40%. The “Concentration with complete ISV inhibition” value ([3]; late exposure scenario, ref Panneerselvan and Ragunathan [2018]) was 2 µM and the “Concentration with inhibition of ISV formation” value ([3]; ref Serbedzija et al. [1999]) was 1 µM.
In the case of `CN(C)c1ccc(C=C2C(=O)Nc3ccccc32)cc1` [SU4312], the LC50 ([1]; 3–96 hpf exposure, ± 95% confidence intervals) is reported as 2110 ± 220 nM, the “Mortality (in words)” value [1] is reported as “no” and the “Swim bladder inflation (in words)” value [2] is reported as “impaired swim bladder inflation”. The IC50 ([3]; ref Tal et al. [2014], read-out: IC50 (ISV inhibition)) was 1800 nM.

— publication PMC10794345, “Analysis of vascular disruption in zebrafish embryos as an endpoint to predict developmental toxicity” (Archives of Toxicology, 2023)
